US7074598B2, “Detection of vancomycin-resistant enterococcus spp” (Mayo Foundation for Medical Education and Research, priority 2002, dated 2006)

Assays:
Enterococcus = experiment: culture and susceptibility results of anal swab specimens (VRE screen media); type: cell-based
Procedure: An additional 56 specimens obtained from anal swabs were analyzed using the LIGHTCYCLER™ assay and were compared to a culture method using a VRE screen media. The anal swabs were prepared for amplification as described above. The LIGHTCYCLER™ assay detected more positive specimens than did culture, and is therefore more sensitive than culture. A high rate of false negative results from rectal swab culture has been previously confirmed in the literature (Clin. Infect. Dis., 2002, 34:167–172).

[1] = tested on: vanB strains of vancomycin-resistant enterococci; conditions: vanB phenotypes (vanB, vanB-2/3); cited from earlier work
[2] = tested on: vanC phenotype of vancomycin-resistant enterococci; conditions: cited from earlier work
[3] = tested on: clinical isolates of Enterococcus; experiment: agar dilution antimicrobial susceptibility testing (MIC) of clinical isolates of Enterococcus; type: cell-based
Procedure: One hundred clinical isolates of Enterococcus (E. casseliflavus/flavescens [n=10], E. faecalis [n=34], E. faecium [n=43], E. avium [n=1], E. gallinarum [n=11], and E. raffinosus [n=1]) were grown on blood agar plates and evaluated for the presence of vanA, vanB, and vanB 2/3 genes using a rapid LIGHTCYCLER™ vancomycin-resistant enteroccoci assay. The LIGHTCYCLER™ vancomycin-resistant enteroccoci assay differentiates the three van genes based on the temperature range over which hybridization probes melt from the target DNA (e.g., as determined by a melting curve). […] The MIC values for all of the other isolates were susceptible to vancomycin at ≦8 μg/ml.

[4] = tested on: Enterococcus isolates from anal swabs; experiment: MIC of isolates cultured from anal swabs of hospitalized patients; type: cell-based
Procedure: Four hundred ninety seven anal swabs collected from hospitalized patients were evaluated for the presence of vanA, vanB and vanB-2/3 genes by the LIGHTCYCLER™ vancomycin-resistant enterococci assay and by conventional culture methods. 482 of the 497 specimens were negative for the van genes and 12 were positive (9 vanA; 0 vanB; 3 vanB-2/3) by the LIGHTCYCLER™ vancomycin-resistant enterococci assay and the conventional culture screen using an 8 μg/ml Enterococcosel plate. […] The MIC values for all of the other isolates were susceptible to vancomycin at ≦8 μg/ml. An additional 21 specimens (4 vanA; 5 vanB; 12 vanB-2/3) were positive by the LIGHTCYCLER™ vancomycin-resistant enterococci assay but were negative by culture. Three of these patient specimens were culture positive with a repeat swab collection. Six of the positive specimens were separate specimens from the same patients. Due to the large number of vanB genotypes missed by culture and picked up with the LIGHTCYCLER™ vancomycin-resistant enterococci assay, the concentration of vancomycin in the Enterococcesel plates was decreased to 6 μg/ml, which is the usual laboratory standard (Manual of Clinical Microbiology, 7th Ed., 1999).

[5] = tested on: vanA strains of vancomycin-resistant enterococci; conditions: cited from earlier work; for glycopeptide resistance phenotype: vanA phenotype
[6] = Enterococcus cultured from anal swab specimen #52 (LightCycler VanA)
[7] = Enterococcus cultured from anal swab specimen #235 (LightCycler VanA)
[8] = Enterococcus cultured from anal swab specimen #244 (LightCycler VanA)
[9] = Enterococcus cultured from anal swab specimen #279 (LightCycler VanB-2/3)
[10] = Enterococcus cultured from anal swab specimen #286 (LightCycler VanB-2/3 weak)
[11] = Enterococcus cultured from anal swab specimen #296 (LightCycler Negative)
[12] = Enterococcus cultured from anal swab specimen #304 (LightCycler Negative)
[13] = Enterococcus cultured from anal swab specimen #419 (LightCycler VanA)
[14] = Enterococcus cultured from anal swab specimen #425 (LightCycler Negative)

| Compound | Susceptibility Results (Enterococcus; [6]) | Susceptibility Results (Enterococcus; [7]) | Susceptibility Results (Enterococcus; [8]) | Susceptibility Results (Enterococcus; [9]) | Susceptibility Results (Enterococcus; [10]) | Susceptibility Results (Enterococcus; [11]) | Susceptibility Results (Enterococcus; [12]) | Susceptibility Results (Enterococcus; [13]) | Susceptibility Results (Enterococcus; [14]) | glycopeptide resistance phenotype [1] | glycopeptide resistance phenotype [2] | MIC ([3]; all of the other isolates (van gene negative), susceptible) [mg/L] | MIC ([3]; vanA, vanB, and vanB-2/3 positive isolates (43 of 100 clinical isolates), all resistant) [mg/L] | MIC ([4]; all of the other isolates from anal swabs, susceptible) [mg/L] | MIC ([4]; vanA and vanB positive isolates from anal swabs, all resistant) [mg/L] | glycopeptide resistance phenotype [5] | minimum inhibitory concentration (MIC) ([5]; vanA strains, typical level) [mg/L] |
| --- | --- | --- | --- | --- | --- | --- | --- | --- | --- | --- | --- | --- | --- | --- | --- | --- | --- |
| CC1(C)S[C@@H]2[C@H](NC(=O)[C@H](N)c3ccccc3)C(=O)N2[C@H]1C(=O)O [Amp, Ampicillan] | S | Amp, Van, Pen, Gent = R | R | R | Amp, Van, Pen, Gent = S | Amp, Van, Pen, Gent = S | S | R | S | – | – | – | – | – | – | – | – |
| CN[C@H](CC(C)C)C(=O)N[C@H]1C(=O)N[C@@H](CC(N)=O)C(=O)N[C@H]2C(=O)N[C@H]3C(=O)N[C@H](C(=O)N[C@H](C(=O)O)c4cc(O)cc(O)c4-c4cc3ccc4O)[C@H](O)c3ccc(c(Cl)c3)Oc3cc2cc(c3O[C@@H]2O[C@H](CO)[C@@H](O)[C@H](O)[C@H]2O[C@H]2C[C@](C)(N)[C@H](O)[C@H](C)O2)Oc2ccc(cc2Cl)[C@H]1O [vancomycin] | I | Amp, Van, Pen, Gent = R | R | S | Amp, Van, Pen, Gent = S | Amp, Van, Pen, Gent = S | I | R | I | variable vancomycin-resistance | low levels of vancomycin-resistance | ≤ 8 | ≥ 64 | ≤ 8 | ≥ 64 | high levels of resistance | > 64 |
| Gentamycin | S | Amp, Van, Pen, Gent = R | S | S | Amp, Van, Pen, Gent = S | Amp, Van, Pen, Gent = S | S | I | S | – | – | – | – | – | – | – | – |
| Pennicillin | S | Amp, Van, Pen, Gent = R | R | R | Amp, Van, Pen, Gent = S | Amp, Van, Pen, Gent = S | S | R | S | – | – | – | – | – | – | – | – |
| teicoplanin | – | – | – | – | – | – | – | – | – | susceptible | susceptible | – | – | – | – | high levels of resistance | – |
